From ChEMBL document CHEMBL1201862, “PubChem BioAssay data set” (2004)
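A five-concentration, 48-hour dose response in 96-well plates underlies each endpoint, interpolated linearly between surrounding concentrations. GI50 marks 50% less growth.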 The source made the active and inactive calls. Rule as the data show it: active = GI50 up to about 1.1 µM and inactive = higher.

Tests used:
Experiment in all cases: inhibition of tumour cell growth, NCI panel, 48 h
[1] = tested on: HOP-92
[2] = tested on: SN12C
[3] = tested on: HL-60
[4] = tested on: BT-549
[5] = tested on: MCF7
[6] = tested on: T47D
[7] = tested on: KM12
[8] = tested on: DU-145
[9] = tested on: SK-MEL-5
[10] = tested on: UO-31
[11] = tested on: IGROV-1
[12] = tested on: ACHN
[13] = tested on: UACC-62
[14] = tested on: MDA-N
[15] = tested on: OVCAR-8
[16] = tested on: OVCAR-4
[17] = tested on: MOLT-4
[18] = tested on: COLO 205
[19] = tested on: MDA-MB-231
[20] = tested on: TK-10
[21] = tested on: SF-268
[22] = tested on: NCI-H226
[23] = tested on: NCI-H522
[24] = tested on: CCRF-CEM
[25] = tested on: SK-MEL-2
[26] = tested on: SF-295
[27] = tested on: SNB-75
[28] = tested on: SR
[29] = tested on: M14
[30] = tested on: HCT-116
[31] = tested on: SF-539
[32] = tested on: K562
[33] = tested on: NCI/ADR-RES
[34] = tested on: OVCAR-5
[35] = tested on: A549
[36] = tested on: SW-620
[37] = tested on: 786-0
[38] = tested on: MDA-MB-435
[39] = tested on: PC-3
[40] = tested on: A498
[41] = tested on: RPMI-8226
[42] = tested on: U-251
[43] = tested on: EKVX
[44] = tested on: NCI-H23
[45] = tested on: OVCAR-3
[46] = tested on: CAKI-1
[47] = tested on: RXF 393
[48] = tested on: SNB-19
[49] = tested on: SK-OV-3
[50] = tested on: HOP-62
[51] = tested on: HCC 2998
[52] = tested on: HT-29
[53] = tested on: SK-MEL-28
[54] = tested on: NCI-H460
[55] = tested on: Malme-3M
[56] = tested on: LOX IMVI
[57] = tested on: HCT-15
[58] = tested on: Hs-578T
[59] = tested on: UACC-257

Compound: C=C(Br)C(Cl)(CBr)CCC(Br)C(C)(C)Cl (stereo not drawn)
- GI50 [1]: > 10 µM (inactive)
- GI50 [2]: > 10 µM (inactive)
- GI50 [3]: > 10 µM (inactive)
- GI50 [4]: > 10 µM (inactive)
- GI50 [5]: 7.83 µM (inactive)
- GI50 [6]: > 10 µM (inactive)
- GI50 [7]: > 10 µM (inactive)
- GI50 [8]: > 10 µM (inactive)
- GI50 [9]: > 10 µM (inactive)
- GI50 [10]: > 10 µM (inactive)
- GI50 [11]: > 10 µM (inactive)
- GI50 [12]: > 10 µM (inactive)
- GI50 [13]: > 10 µM (inactive)
- GI50 [14]: > 10 µM (inactive)
- GI50 [15]: > 10 µM (inactive)
- GI50 [16]: > 10 µM (inactive)
- GI50 [17]: > 10 µM (inactive)
- GI50 [18]: > 10 µM (inactive)
- GI50 [19]: > 10 µM (inactive)
- GI50 [20]: > 10 µM (inactive)
- GI50 [21]: > 10 µM (inactive)
- GI50 [22]: > 10 µM (inactive)
- GI50 [23]: > 10 µM (inactive)
- GI50 [24]: > 10 µM (inactive)
- GI50 [25]: > 10 µM (inactive)
- GI50 [26]: > 10 µM (inactive)
- GI50 [27]: > 10 µM (inactive)
- GI50 [28]: > 10 µM (inactive)
- GI50 [29]: > 10 µM (inactive)
- GI50 [30]: > 10 µM (inactive)
- GI50 [31]: > 10 µM (inactive)
- GI50 [32]: > 10 µM (inactive)
- GI50 [33]: > 10 µM (inactive)
- GI50 [34]: > 10 µM (inactive)
- GI50 [35]: > 10 µM (inactive)
- GI50 [36]: > 10 µM (inactive)
- GI50 [37]: 5.36 µM (inactive)
- GI50 [38]: > 10 µM (inactive)
- GI50 [39]: > 10 µM (inactive)
- GI50 [40]: > 10 µM (inactive)
- GI50 [41]: 9.2 µM (inactive)
- GI50 [42]: > 10 µM (inactive)
- GI50 [43]: > 10 µM (inactive)
- GI50 [44]: > 10 µM (inactive)
- GI50 [45]: > 10 µM (inactive)
- GI50 [46]: > 10 µM (inactive)
- GI50 [47]: > 10 µM (inactive)
- GI50 [48]: > 10 µM (inactive)
- GI50 [49]: > 10 µM (inactive)
- GI50 [50]: > 10 µM (inactive)
- GI50 [51]: > 10 µM (inactive)
- GI50 [52]: > 10 µM (inactive)
- GI50 [53]: > 10 µM (inactive)

Compound: Cc1c(C#N)c2nc3ccccc3n2c(=O)/c1=C/Nc1ccc(Cl)cc1
- GI50 [1]: 20.1 µM (inactive)
- GI50 [2]: 93.3 µM (inactive)
- GI50 [3]: > 100 µM (inactive)
- GI50 [4]: 22.7 µM (inactive)
- GI50 [5]: 55.2 µM (inactive)
- GI50 [54]: 29.2 µM (inactive)
- GI50 [6]: 37.6 µM (inactive)
- GI50 [7]: 6.61 µM (inactive)
- GI50 [55]: > 100 µM (inactive)
- GI50 [9]: 19.4 µM (inactive)
- GI50 [10]: 15.7 µM (inactive)
- GI50 [11]: 36.1 µM (inactive)
- GI50 [12]: 10.6 µM (inactive)
- GI50 [13]: 15.8 µM (inactive)
- GI50 [14]: > 100 µM (inactive)
- GI50 [15]: 51.3 µM (inactive)
- GI50 [16]: > 100 µM (inactive)
- GI50 [17]: 34.9 µM (inactive)
- GI50 [18]: 95.1 µM (inactive)
- GI50 [19]: 24.8 µM (inactive)
- GI50 [20]: 14.2 µM (inactive)
- GI50 [21]: 22.9 µM (inactive)
- GI50 [22]: 42.3 µM (inactive)
- GI50 [23]: 46.2 µM (inactive)
- GI50 [25]: 14.2 µM (inactive)
- GI50 [26]: 7.71 µM (inactive)
- GI50 [27]: 7.21 µM (inactive)
- GI50 [28]: > 100 µM (inactive)
- GI50 [56]: 30.4 µM (inactive)
- GI50 [29]: 3.83 µM (inactive)
- GI50 [30]: 16.6 µM (inactive)
- GI50 [31]: 12.1 µM (inactive)
- GI50 [32]: 2.72 µM (inactive)
- GI50 [33]: 95.7 µM (inactive)
- GI50 [34]: 9.64 µM (inactive)
- GI50 [35]: 53.1 µM (inactive)
- GI50 [57]: 8.65 µM
- GI50 [36]: > 100 µM (inactive)
- GI50 [37]: 6.25 µM (inactive)
- GI50 [38]: 94.4 µM (inactive)
- GI50 [40]: 15.9 µM (inactive)
- GI50 [41]: 37.8 µM (inactive)
- GI50 [42]: 7.66 µM (inactive)
- GI50 [43]: 50.7 µM (inactive)
- GI50 [44]: 18.1 µM (inactive)
- GI50 [58]: 10.8 µM (inactive)
- GI50 [59]: > 100 µM (inactive)
- GI50 [46]: 11.3 µM (inactive)
- GI50 [47]: 11.7 µM (inactive)
- GI50 [48]: 11 µM (inactive)
- GI50 [49]: 14.1 µM (inactive)
- GI50 [50]: 12.9 µM (inactive)
- GI50 [51]: > 100 µM (inactive)
- GI50 [52]: > 100 µM (inactive)
- GI50 [53]: > 100 µM (inactive)
